Assay: Bioavailability study in NZW rabbits after single dose topical administration, sorafenib content by LC-MS
Type: in vivo
Description: Bioavailability study in NZW rabbits after single dose administration (50 μL topical administration in the right eye) was conducted and content of sorafenib tosylate in plasma (PL), bulbar conjunctivae (BCJ), aqueous humor (AH), cornea (C), vitreous (V), retina (R), and sclera (SC) was evaluated after treatment at t=5, 15, 30, 60, 90, 120 min by LC-MS.
Thirty-six NZW male rabbits, weighing approximately 2 kg, were used in this study. The study was conducted in accordance with GLP standards at the test facility IRIS PHARMA. All animals were treated according to the Directive 2010/63/UE European Convention for the Protection of Vertebrate Animals used for Experimental and Other Scientific Purposes and to the ARVO Statement for the Use of Animals in Ophthalmic and Vision Research. All animals were housed individually in standard cages under identical temperature (18° C.±3° C.), relative humidity (45%-80%), and controlled enrichment conditions and exposed to a 12-h light and darkness cycle in continuously ventilated rooms (15-20 air volumes per hour). They received a standard dry pellet diet and water ad libitum. Only animals with no macroscopic ocular signs of irritation were involved in this study and randomly divided in six time-point groups of 6 animals each (Table 3).
Animals received a single 50 μL topical administration in the right eye and at the time-points listed in Table 3 they were anesthetized by an intramuscular injection of a mix xylazine/ketamine before euthanasia by an intracardiac injection of overdosed pentobarbital. The whole blood in EDTA anticoagulant tubes were sampled by intracardiac puncture, and plasma was prepared and frozen at −23° C.±7° C. Immediately after euthanasia, BCJ, AH, C, V, R, and SC were quickly and carefully dissected from both eyes and weighed, frozen in dry ice and at −23° C.±7° C. until assay. Content of sorafenib was determined in R and PL of both eyes in priority and in AH, BCJ, C, V and SC of both eyes following the rapid resolution liquid chromatography/tandem mass spectrometry method.

concentration at 120 min (male, NZW, rabbit, cornea, topical, 50 μL, 120 min (2 h) post treatment, SD=±596): 1710 ng/g
time of sorafenib maximum content in retina of treated eyes (single 50 μL instillation in right eye): 5 min
sorafenib maximum content in retina of treated eyes (single 50 μL instillation in right eye, 5 min after treatment): 170 ng/g
sorafenib in retina of left untreated eyes (single 50 μL instillation in right eye, all rabbits): no amount of sorafenib was detected
highest detected amount of sorafenib in plasma (two hours after treatment): 2 ng/g
SMILES: CNC(=O)c1cc(Oc2ccc(NC(=O)Nc3ccc(Cl)c(C(F)(F)F)c3)cc2)ccn1 [sorafenib]
